Assay results: patent publication US7211572B2 (Japan Tobacco Inc., priority 2003, dated 2007)
Counter-ions that a name gives are not always drawn.

Biological target: T1, HIV integrase (Human immunodeficiency virus type 1 group M subtype B, UniProt P12497, F1332H)
T1 construct: HIV integrase full length gene; made in house; host or cells: Escherichia coli BL21(DE3), plasmid pET21a-INH
Experiment: Determination of enzyme (HIV integrase) inhibitory activity
Format: biochemical
Settings: recombinant HIV integrase (F185H), strand transfer ELISA, absorbance at 450 nm
How it was run: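 Full-length integrase with F185H, expressed in E. coli and purified, was reacted for 60 min at 37 °C with compound and biotinylated donor DNA bound to streptavidin plates. Target DNA was added for 10 min, then anti-digoxigenin-peroxidase detection at A450; IC50 from % inhibition versus enzyme-free blank.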

Row | SMILES | IC50
1 | CC(=O)Nc1cn2ccn(Cc3cccc(Cl)c3F)c(=O)c2c(O)c1=O [Example 325, N-[2-(3-chloro-2-fluorobenzyl)-9-hydroxy-1,8-dioxo-1,8-dihydro-2H-pyrido[1,2-a]pyrazin-7-yl]acetamide hydrochloride] | 10 to 100 nM
2 | COC(=O)c1cc(F)ccc1CN1CCn2cc(-c3nccs3)c(=O)c(O)c2C1=O [Example 326, methyl 5-fluoro-2-[9-hydroxy-1,8-dioxo-7-(thiazol-2-yl)-1,3,4,8-tetrahydro-pyrido[1,2-a]pyrazin-2-ylmethyl]benzoate] | 100 to 1000 nM
3 | O=C1c2c(O)c(=O)c(-c3ccccn3)cn2CCN1Cc1ccc(F)c(Cl)c1 [Example 327, 2-(3-chloro-4-fluorobenzyl)-9-hydroxy-7-(pyridin-2-yl)-3,4-dihydro-2H-pyrido[1,2-a]pyrazine-1,8-dione hydrochloride] | < 10 nM
4 | O=C1c2c(O)c(=O)c(-c3cccnc3)cn2CCN1Cc1cccc(Cl)c1F [Example 328, 2-(3-chloro-2-fluorobenzyl)-9-hydroxy-7-(pyridin-3-yl)-3,4-dihydro-2H-pyrido[1,2-a]pyrazine-1,8-dione hydrochloride] | 10 to 100 nM
5 | O=C1c2c(O)c(=O)c(-c3ccccn3)cn2CCN1CCCc1c(F)cccc1Cl [Example 329, 2-[3-(2-chloro-6-fluorophenyl)propyl]-9-hydroxy-7-(pyridin-2-yl)-3,4-dihydro-2H-pyrido[1,2-a]pyrazine-1,8-dione hydrochloride] | 10 to 100 nM
6 | O=C1c2c(O)c(=O)c(-c3nccs3)cn2CCN1Cc1cc2ccccc2o1 [Example 330, 2-(benzofuran-2-ylmethyl)-9-hydroxy-7-(thiazol-2-yl)-3,4-dihydro-2H-pyrido[1,2-a]pyrazine-1,8-dione] | < 10 nM
7 | O=C(NC(Cc1ccccc1)c1ccccc1)c1cn2c(c(O)c1=O)C(=O)N(Cc1cccc(Cl)c1)CC2 (stereo not shown) [Example 331, N-(1,2-diphenylethyl)-2-(3-chlorobenzyl)-9-hydroxy-1,8-dioxo-1,3,4,8-tetrahydro-2H-pyrido[1,2-a]pyrazine-7-carboxamide] | 10 to 100 nM
8 | CC(=O)Nc1cn2c(c(O)c1=O)C(=O)N(Cc1cccc(Cl)c1F)CC2 [Example 332, N-[2-(3-chloro-2-fluorobenzyl)-9-hydroxy-1,8-dioxo-1,3,4,8-tetrahydro-2H-pyrido[1,2-a]pyrazin-7-yl]acetamide] | 10 to 100 nM
9 | O=C1c2c(O)c(=O)c(-c3nccs3)cn2CCN1CCCc1ccccc1F [Example 333, 2-[3-(2-fluorophenyl)propyl)-9-hydroxy-7-(thiazol-2-yl)-3,4-dihydro-2H-pyrido[1,2-a]pyrazine-1,8-dione] | 10 to 100 nM
10 | O=C(NC(CCc1ccccc1)c1ccccc1)c1cn2c(c(O)c1=O)C(=O)N(Cc1cccc(Cl)c1)CC2 (stereo not shown) [Example 334, N-(1,3-diphenylpropyl)-2-(3-chlorobenzyl)-9-hydroxy-1,8-dioxo-1,3,4,8-tetrahydro-2H-pyrido[1,2-a]pyrazine-7-carboxamide] | 10 to 100 nM
11 | CNC(=O)c1cc(F)ccc1CCCN1CCn2cc(-c3nccs3)c(=O)c(O)c2C1=O [Example 335, 5-fluoro-2-{3-[9-hydroxy-1,8-dioxo-7-(thiazol-2-yl)-1,3,4,8-tetrahydro-pyrido[1,2-a]pyrazin-2-yl]propyl)-N-methylbenzamide] | 10 to 100 nM
12 | CC(C)(C)C(=O)c1cn2c(c(O)c1=O)C(=O)N(CCCc1c(F)cccc1Cl)CC2 [Example 336, 2-[3-(2-chloro-6-fluorophenyl)propyl]-7-(2,2-dimethylpropionyl)-9-hydroxy-3,4-dihydro-2H-pyrido[1,2-a]pyrazine-1,8-dione] | < 10 nM
13 | CC(C)C(=O)c1cn2c(c(O)c1=O)C(=O)N(Cc1cccc(Cl)c1)CC2 [Example 337, 2-(3-chlorobenzyl)-9-hydroxy-7-isobutyryl-3,4-dihydro-2H-pyrido[1,2-a]pyrazine-1,8-dione] | < 10 nM
14 | O=C1c2c(O)c(=O)c(-c3nccs3)cn2CCN1CCCCc1ccccc1 [Example 338, 9-hydroxy-2-(4-phenylbutyl)-7-(thiazol-2-yl)-3,4-dihydro-2H-pyrido[1,2-a]pyrazine-1,8-dione hydrochloride] | 10 to 100 nM
15 | CCCCCN1CCn2cc(-c3nccs3)c(=O)c(O)c2C1=O [Example 339, 9-hydroxy-2-pentyl-7-(thiazol-2-yl)-3,4-dihydro-2H-pyrido[1,2-a]pyrazine-1,8-dione hydrochloride] | 100 to 1000 nM
16 | O=C1c2c(O)c(=O)c(-c3ccncc3)cn2CCN1Cc1cccc(Cl)c1F [Example 340, 2-(3-chloro-2-fluorobenzyl)-9-hydroxy-7-(pyridin-4-yl)-3,4-dihydro-2H-pyrido[1,2-a]pyrazine-1,8-dione hydrochloride] | < 10 nM
17 | O=c1c(-c2ccncc2)cn2ccn(Cc3ccc(F)cc3)c(=O)c2c1O [Example 341, 2-(4-fluorobenzyl)-9-hydroxy-7-(pyridin-4-yl)-2H-pyrido[1,2-a]pyrazine-1,8-dione hydrochloride] | < 10 nM

Row | SMILES | IC50
18 | O=c1c(-c2ccncn2)cn2ccn(Cc3cccc(Cl)c3F)c(=O)c2c1O [Example 342, 2-(3-chloro-2-fluorobenzyl)-9-hydroxy-7-(pyrimidin-4-yl)-2H-pyrido[1,2-a]pyrazine-1,8-dione trifluoroacetate] | < 10 nM
19 | Cn1ncnc1-c1cn2c(c(O)c1=O)C(=O)N(Cc1ccc(F)c(Cl)c1)CC2 [Example 343, 2-(3-chloro-4-fluorobenzyl)-9-hydroxy-7-(2-methyl-2H-1,2,4-triazol-3-yl)-3,4-dihydro-2H-pyrido[1,2-a]pyrazine-1,8-dione] | < 10 nM
20 | CC(=O)c1cn2ccn(Cc3ccc(F)cc3)c(=O)c2c(O)c1=O [Example 344, 7-acetyl-2-(4-fluorobenzyl)-9-hydroxy-2H-pyrido [1,2-a]pyrazine-1,8-dione] | < 10 nM
21 | CC(C)C(=O)c1cn2ccn(Cc3ccc(F)cc3)c(=O)c2c(O)c1=O [Example 345, 2-(4-fluorobenzyl)-9-hydroxy-7-isobutyryl-2H-pyrido[1,2-a]pyrazine-1,8-dione hydrochloride] | < 10 nM
22 | O=C(Nc1cn2c(c(O)c1=O)C(=O)N(Cc1cccc(Cl)c1)CC2)c1ccncc1 [Example 346, N-[2-(3-chlorobenzyl)-9-hydroxy-1,8-dioxo-1,3,4,8-tetrahydro-2H-pyrido[1,2-a]pyrazin-7-yl]isonicotinamide hydrochloride] | 10 to 100 nM
23 | O=c1c(-c2ccncn2)cn2ccn(Cc3ccc(F)cc3)c(=O)c2c1O [Example 347, 2-(4-fluorobenzyl)-9-hydroxy-7-(pyrimidin-4-yl)-2H-pyrido[1,2-a]pyrazine-1,8-dione] | < 10 nM
24 | O=C1c2c(O)c(=O)c(-c3cnccn3)cn2CCN1Cc1ccc(F)c(Cl)c1 [Example 348, 2-(3-chloro-4-fluorobenzyl)-9-hydroxy-7-(pyrazin-2-yl)-3,4-dihydro-2H-pyrido[1,2-a]pyrazine-1,8-dione] | 10 to 100 nM
25 | CC(C)C(=O)Nc1cn2c(c(O)c1=O)C(=O)N(Cc1ccc(F)c(Cl)c1)CC2 [Example 349, N-[2-(3-chloro-4-fluorobenzyl)-9-hydroxy-1,8-dioxo-1,3,4,8-tetrahydro-2H-pyrido[1,2-a]pyrazin-7-yl]isobutyramide] | 10 to 100 nM
26 | O=C1c2c(O)c(=O)c(-c3nccs3)cn2CCN1Cc1ccc(Cl)cc1O [Example 350, 2-(4-chloro-2-hydroxybenzyl)-9-hydroxy-7-(thiazol-2-yl)-3,4-dihydro-2H-pyrido[1,2-a]pyrazine-1,8-dione hydrochloride] | < 10 nM
27 | CC(CCN1CCn2cc(-c3nccs3)c(=O)c(O)c2C1=O)c1ccccc1 (stereo not shown) [Example 351, 9-hydroxy-2-(3-phenylbutyl)-7-(thiazol-2-yl)-3,4-dihydro-2H-pyrido[1,2-a]pyrazine-1,8-dione hydrochloride] | 10 to 100 nM
28 | O=C(Nc1cn2c(c(O)c1=O)C(=O)N(Cc1cccc(Cl)c1F)CC2)c1cccnc1 [Example 352, N-[2-(3-chloro-2-fluorobenzyl)-9-hydroxy-1,8-dioxo-1,3,4,8-tetrahydro-2H-pyrido[1,2-a]pyrazin-7-yl)nicotinamide hydrochloride] | 10 to 100 nM
29 | CS(=O)(=O)Nc1cn2c(c(O)c1=O)C(=O)N(Cc1ccc(F)c(Cl)c1)CC2 [Example 353, N-[2-(3-chloro-4-fluorobenzyl)-9-hydroxy-1,8-dioxo-1,3,4,8-tetrahydro-2H-pyrido[1,2-a]pyrazin-7-yl]methanesulfonamide] | < 10 nM
30 | CCCOc1ccc(CN2CCn3cc(-c4nccs4)c(=O)c(O)c3C2=O)cc1Cl [Example 354, 2-(3-chloro-4-propoxybenzyl)-9-hydroxy-7-(thiazol-2-yl)-3,4-dihydro-2H-pyrido[1,2-a]pyrazine-1,8-dione hydrochloride] | 10 to 100 nM
31 | CC(C)Oc1ccc(CN2CCn3cc(-c4nccs4)c(=O)c(O)c3C2=O)cc1Cl [Example 355, 2-(3-chloro-4-isopropoxybenzyl)-9-hydroxy-7-(thiazol-2-yl)-3,4-dihydro-2H-pyrido[1,2-a]pyrazine-1,8-dione hydrochloride] | 10 to 100 nM
32 | O=C1c2c(O)c(=O)c(-c3nccs3)cn2CCN1Cc1ccc(OCc2ccccc2)c(Cl)c1 [Example 356, 2-(4-benzyloxy-3-chlorobenzyl)-9-hydroxy-7-(thiazol-2-yl)-3,4-dihydro-2H-pyrido[1,2-a]pyrazine-1,8-dione hydrochloride] | 10 to 100 nM
33 | CCCOc1cc(Cl)ccc1CN1CCn2cc(-c3nccs3)c(=O)c(O)c2C1=O [Example 357, 2-(4-chloro-2-propoxybenzyl)-9-hydroxy-7-(thiazol-2-yl)-3,4-dihydro-2H-pyrido[1,2-a]pyrazine-1,8-dione hydrochloride] | 10 to 100 nM
34 | CC(C)Oc1cc(Cl)ccc1CN1CCn2cc(-c3nccs3)c(=O)c(O)c2C1=O [Example 358, 2-(4-chloro-2-isopropoxybenzyl)-9-hydroxy-7-(thiazol-2-yl)-3,4-dihydro-2H-pyrido[1,2-a]pyrazine-1,8-dione hydrochloride] | 10 to 100 nM
